# From patent US20040171613A1, “Therapeutic agent for non-immediate type allergic diseases” (JAPAN TOBACCO INC., priority 2001, published 2004)
# Read-outs that look alike come from different tables or passages of the source.
# What was measured:
# mouse ear = test: ear swelling induced by application of CB2 agonist or arachidonic acid; assay type: in vivo
# Description: Therefore, 2-arachidonoylglycerol ether (2-AG-E), the stable form of an endogenous ligand candidate 2-arachidonoylglycerol, and a specific CB2 agonist HU-308 were examined whether they directly induce ear swelling and compared to the ear swelling induced by arachidonic acid (AA).
# Synthetically produced 2-AG-E and HU-308 were prepared with acetone to 1 or 10% (w/v) and 10% (w/v), respectively, and AA (Sigma) was prepared with acetone to 1.25% (w/v), on needed basis. 10 μL each of these substances was applied on each side of the left ear.
# CB2 [1] = biological target: T1, CB2 (Homo sapiens, UniProt P34972); test: cAMP production in forskolin-stimulated hCB2-expressing CHO cells; assay type: cell-based; set-up: expressed in transfected cells; host or cells: CHO cells; conditions: for remaining activity at 0.1 µM: CHO, Forskolin (5 μM) + compound 0.1 μM, read-out: Amount of cAMP production compared to control (ratio (%))
# Target sequence in this assay (P34972 whole entry): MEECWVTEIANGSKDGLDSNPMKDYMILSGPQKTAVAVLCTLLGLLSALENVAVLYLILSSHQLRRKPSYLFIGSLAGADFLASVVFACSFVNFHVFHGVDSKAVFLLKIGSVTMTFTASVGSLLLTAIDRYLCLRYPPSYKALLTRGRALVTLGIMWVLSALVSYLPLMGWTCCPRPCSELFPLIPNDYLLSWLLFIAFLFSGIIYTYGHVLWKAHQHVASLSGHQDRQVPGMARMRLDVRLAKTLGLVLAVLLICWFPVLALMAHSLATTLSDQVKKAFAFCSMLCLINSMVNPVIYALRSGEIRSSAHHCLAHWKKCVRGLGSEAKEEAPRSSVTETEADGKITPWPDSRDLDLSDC
# [2] = system: wild-type and CB2-deficient mice; test: 2-AG-E-induced ear swelling in CB2-deficient mice; assay type: in vivo, mouse
# Description: As described under the item of “7. IgE-dependent ear swelling in CB2-deficient mice”, female CB2-KO mice and female WT mice were used as experimental animals.
# 10 μL of 2-AG-E (100 mg/mL acetone) was applied on each side of the left ears of the mice on the first day of experiment.
# (§1) The swelling of the ear was measured over time before and after the application of 2-AG-E using a dial thickness gauge. The difference between the values measured before and after the antigen application was defined as the degree of ear swelling. Then, AUC (area under the curve: the degree of ear swelling ×time) was determined from the changes of the degree of ear swelling with the time course, and given as mean ± standard error (S.E.). Student's t-test was used in the statistical treatment. A significance level less than 5% was assumed to be significant.
# [3] = system: WBB6F1-+/+ and WBB6F1-W/Wv mice; test: 2-AG-E-induced ear swelling in mast cell-deficient mice; assay type: in vivo, mouse; conditions: topical 2-AG-E 100 mg/mL
# Description: The degree of allergic symptoms was examined in mice deficient (partially deficient) of mast cells, which cells are considered to largely contribute to allergic reactions.
# Female mice of WBB6F1-+/+ (normal mouse) strain and WBB6F1-W/W^v (mast cell-deficient mouse) strain were purchased from Japan SLC, Inc. and used as experimental animals.
# 10 μL 2-AG-E (100 mg/mL acetone) was applied on each side of the left ears of the mice on the first day of experiment.
# as §1, with “AUC” for “AUC (area under the curve: the degree of ear swelling ×time)”, “changes in” for “changes of”, “time course” for “time course,”
# [4] = system: IgE-dependent allergic dermatitis
# Description: (§2) Using a triphase dermatitis model that can be induced by antigen in mouse passively sensitizationed with IgE, the actions of CB2 inverse agonist and CB2 agonist were examined.
# (§3) *Animal: 8 to 10 weeks-old Female BALB/c mouse (Japan SLC Inc.) was used.
# (§4) Preparation of solvent: MC was dissolved in distilled water to prepare an aqueous 0.5% MC solution.
# (§5) Anti-DNP IgE (antibody against DNP; Yamasa Corp.) was prepared to 15 μg/mL with physiological saline. 0.2 mL of the resulting solution was given through the caudal vein to the mouse.
# (§6) Antigen preparation: 0.15% (w/v) of DNFB (2,4-dinitrofluorobenzene) was prepared in a mixed solution of acetone and olive oil (3:1, v/v) on needed basis.
# (§7) Antigen application: 25 μl of the antigen solution was applied on each side of both of the ears 24 hours after the administration of the anti-DNP IgE.
# (§8) From the next day of the antigen application to day 8 after the antigen application, 10 mL/kg test compound was orally administered once a day 9 times in total. On the day of antigen application, the test compound was administered one hour before the antigen application and the test compound was administered one hour before the measurement of the thickness of the ear on day 8 after the antigen application.
# (§9) Before and 8 days after the antigen application, the thickness of the ear was measured with a dial thickness gauge (Mitutoyo Corp.). The difference between the value measured before the antigen application and at each time point was used as an index of swelling.
# (§10) After the measurement of ear swelling, spleen and thymus were harvested to weigh their wet weights.
# CB2 [5] = biological target: T1, CB2; set-up: host or cells: CHO cells expressing CB2; conditions: CB2 expressing CHO cells; non-patent reference 3; cited from earlier work
# Target sequence in this assay (P34972 whole entry, species assumed): as the sequence (P34972 whole entry) above
# [6] = system: IgE-dependent allergic dermatitis; conditions: mouse, in vivo, po
# Description: as §2, §3, §4, §5, §6, §7, §8, §9, §10
# [7] = system: spontaneous scratching reaction; test: spontaneous scratching reaction of NC mouse; assay type: in vivo; conditions: NC/Jic mice; oral once a day for 3 weeks; vs solvent control
# From the text: Currently, NC mouse is used as an animal model of atopic dermatitis. No dermatitis or scratching action is observed when the mouse is kept in an environment under the control of atmospheric microorganisms (in SPF environment). However, when the mouse is kept in a conventional environment, scratching action together with the onset of dermatitis can be observed from about week 8 and the symptom progresses into chronic symptom (J. Dermatol. Sci., 25, 20-28, 2001).
# Preparation of solvent: MC was dissolved in tap water to prepare an aqueous 0.5% (w/v) MC solution.
# As positive controls, betamethasone valerate (Sigma) and tacrolimus hydrate (extracted from Prograf (Fujisawa Pharmaceutical Co., Ltd.)) were similarly prepared to 1 mg/mL. Betamethasone valerate is one of the adrenocorticosteroids that is considered to be effective for the treatment of atopic dermatitis. Tacrolimus hydrate is a therapeutic agent of atopic dermatitis which is known as an immunosuppressor as described above.
# The mice (A) were taken away from the cage and the NC/Jic mice were used at the age of 16 weeks.
# Breeding conditions: The mice were fed with solid feed CA-1 (CLEA JAPAN INC.) ad libitum and tap water as drinking water ad libitum, and kept at a temperature of 22±2° C. and a humidity of 55±10% under lighting from 8:00 a.m. to 20:00 p.m.
# From 10 days before the start of the experiment, the number of scratching behavior with hind legs of the mice was visually counted (for 20 minutes; once daily) over 2 days or 3 days. Among the plural mice counted, mice with 50 or more average scratching movements per day were selected for use.
# The behavior of the mice was filmed under unattended environment with a video camera to count the scratching motion with hind legs for one hour. […] This series of scratching motions was counted as one scratching movement, and all such scratching movements were counted irrespective of scratched sites. The measurement was done on the starting day of administration, and one day, 3, 6, 10, 13, 17 and 20 days after the start of administration. […]
# antigen-induced asthma = test: antigen-induced immediate type asthma, late-type asthma and airway hypersensitivity in guinea pigs; assay type: in vivo, guinea pig; conditions: oral, compound A 10, 30, 100 mg/kg, positive controls 30 mg/kg
# Description: The test compound was further diluted to 20, 6 and 2 mg/mL on needed basis. As positive controls, 6 mg/mL pranlukast hydrate (extracted from Onon™ (Ono Pharmaceutical Co., Ltd.)) and 6 mg/mL prednisolone (Sigma) were similarly prepared.
# Sensitization: Using an ultrasonic nebulizer (NE-U12; OMRON), a 6-weeks old male Hartley guinea pig (Kudo, Co., Ltd.) was continuously inhaled with 1% OVA (ovalbumin; Sigma)-containing physiological saline for 10 minutes per day for 8 consecutive days.
# Antigen challenge: One week after the last sensitization, 2% OVA was similarly inhaled for 5 minutes. 24 hours before and one hour after the OVA challenge, metyrapone-containing physiological saline (Aldrich, 10 mg/mL) was administered intravenously and 30 minutes before the OVA induction, pyrilamine-containing physiological saline (Sigma, 10 mg/kg) was administered intraperitoneally.
# During the 8 days of sensitization, the test compound was given one hour before the sensitization. On the day of the antigen challenge, the test compound was given one hour before the challenge. As solvent controls, the vehicle was similarly administered in accordance with OVA induction and physiological saline induction.
# As positive controls, pranlukast hydrate was administered one hour before the challenge, while prednisolone was administered 16 hours and 2 hours before the challenge. The animals were fasted 16 to 18 hours before the oral administration.
# Using total respiratory function analysis system (Pulmos-I, M.I.P.S. Company), the pre value was measured. Subsequently, specific airway resistance (hereinafter referred to as sRaw) per 100 breathes was measured one minute and 2, 4, 5, 6, 7 and 8 hours after the OVA challenge, and further once between 22 to 26 hours after the challenge, respectively. The average was used as sRaw at each measured time point. The increment ratio of sRaw was calculated by the following formula.
# Increment ratio of sRaw (%)=[(sRaw at each measured time point −sRaw before the challenge)/(sRaw before the challenge)]×100
# Twenty-two to 26 hours after the antigen challenge, each of 0.0625, 0.125, 0.25, 0.5, 1 and 2 mg/mL solutions of physiological saline and acetylcholine (hereinafter referred to as ACh) were sequentially inhaled for one minute, until the sRaw was 2-fold or more to the baseline sRaw (sRaw after inhalation of physiological saline). Based on the ACh concentration and the concentration-resistance curve of sRaw, the ACh concentration required for the sRaw to achieve 100% increase from the baseline sRaw, i.e., PC100ACh was determined.
# [8] = system: DNFB-induced allergic dermatitis; test: murine DNFB-induced allergic dermatitis model; assay type: in vivo, mouse; conditions: 24 hours after the fifth antigen application; oral dosing
# Description: The model is produced by repeating antigen sensitization and induction in mouse to induce contact dermatitis that involves increase of IgE antibody titer, i.e., inflammation similar to atopic dermatitis (J. Allergy Clin. Immunol., 100 (6Pt2), 39-44, December 1997).
# Furthermore, by dilution, 0.1 mg/mL and 0.01 mg/mL suspensions were prepared. In addition, as positive controls, 0.5 mg/mL, 0.2 mg/mL and 0.1 mg/mL solutions of prednisolone (Sigma) were similarly prepared.
# During the period from the next day of the third antigen application to the next day of the fifth antigen application, 10 mL/kg of the above-described test compound was administered once a day 15 times in total.
# The difference of thickness was used as an index of swelling. FIGS. 1 and 2 show the results of the measurement at the fourth and fifth antigen applications, together with the results of the positive controls.
# 24 hours after the fifth antigen application, the spleen was harvested from the mouse exsanguinated under anesthesia with ether. The wet weight of the spleen was measured.
# [9] = 8 days after antigen application, oral dosing
smiles,measurement,setting,value
"CCCCC/C=C\C/C=C\C/C=C\C/C=C\CCCC(=O)O [AA, arachidonic acid]",time after which swelling disappeared,mouse ear; topical AA 1.25% (w/v),2 days
same,time of peak ear swelling after the application,mouse ear; topical application on ear,one
same,ear swelling induced by application on the ear,"mouse ear; topical in acetone, 2-AG-E 1 or 10%, HU-308 10%, AA 1.25% (w/v)",swelling that reached a peak one hour after the application
CCCCCOc1c(OC)ccc2cc(C(=O)NCCN3CCOCC3)c(=O)[nH]c12 [B],remaining activity at 0.1 µM,CB2 [1],430%
CCCCOc1c(OC)ccc2cc(C(=O)NCCc3ccc(F)cc3)c(=O)[nH]c12 [C],remaining activity at 0.1 µM,CB2 [1],212%
"CCCCC/C=C\C/C=C\C/C=C\C/C=C\CCCC(=O)OC(CO)CO [Compound 2-AG, 2-arachidonoylglycerol]",forskolin-stimulated cAMP production,"CB2 [1]; hCB2-expressing CHO cells, statement in definitions",suppress the forskolin-stimulated cAMP production
"CCCCC/C=C\C/C=C\C/C=C\C/C=C\CCCCOC(CO)CO [Compound 2-AG-E, 2-arachidonoylglycerol ether]",ear swelling induced by application on the ear,"mouse ear; mouse, in vivo",concentration-dependent ear swelling
same,time of peak ear swelling after the application,"mouse ear; mouse, in vivo",1 to 2 h
same,"2-AG-E-induced dermatitis, CB2-deficient mice, very late phase",[2]; CB2-KO,no significant inflammation was observed
same,"2-AG-E-induced dermatitis, CB2-deficient mice, early phase","[2]; CB2-KO, topical 2-AG-E 100 mg/mL",developed dermatitis in the early phase
same,"2-AG-E-induced dermatitis, CB2-deficient mice, late phase","[2]; CB2-KO, vs wild-type",inflammation was milder in the late phase
same,"2-AG-E-induced dermatitis (ear swelling), wild-type mice","[2]; wild-type C57BL/6 J, topical 2-AG-E 100 mg/mL",developed dermatitis in the very late phase in addition to the early phase and late phase
same,"2-AG-E-induced dermatitis, mast cell-deficient (WBB6F1-W/Wv) mice",[3],developed dermatitis
same,"2-AG-E-induced dermatitis, wild-type (WBB6F1-+/+) mice",[3]; vs mast cell-deficient mice,more severe dermatitis
same,forskolin-stimulated cAMP production,CB2 [1],suppress the forskolin-stimulated cAMP production
same,functional character at CB2 (inverse agonist / agonist),CB2 [1],agonists
CCCCCOc1c(OC)ccc2cc(C(=O)NCCc3ccncc3)c(=O)n(C)c12 [F],remaining activity at 0.1 µM,CB2 [1],218%
CCCCCCC(C)(C)c1cc(OC)c([C@@H]2C=C(CO)[C@@H]3C[C@H]2C3(C)C)c(OC)c1 [HU-308],wet weight of the spleen,[4]; [9],Significant decrease
same,"ear swelling, very late phase","[4]; 8 days after application, oral once a day, compound A 0.1, 1, 10 mg/kg, SR144528 0.1 mg/kg or higher, HU-308 10 and 50 mg/kg",no pharmacological effect was observed
CCCCCOc1c(OC)ccc2c1CC(=O)N(CCCN1CCOCC1)C2=O [I],remaining activity at 0.1 µM,CB2 [1],125%
Cc1ccc(Cn2nc(C(=O)N[C@H]3C4(C)CCC(C4)C3(C)C)cc2-c2ccc(Cl)c(C)c2)cc1 (some centres unmarked) [SR144528],"ear swelling, very late phase","[4]; mouse, in vivo",significant effect
same,forskolin-stimulated cAMP production,CB2 [5],elevate the production of cyclic adenosine-phosphate (cAMP)
same,wet weight of the spleen,[6],no apparent changes
same,wet weight of the thymus,[6],no apparent changes
CCCCC(=O)O[C@]1(C(=O)CO)[C@@H](C)C[C@H]2[C@@H]3CCC4=CC(=O)C=C[C@]4(C)[C@@]3(F)[C@@H](O)C[C@@]21C [betamethasone valerate],number of scratching movements,[7],suppressed the number of scratching movements
C[C@]12C=CC(=O)C=C1CC[C@@H]1[C@@H]2[C@@H](O)C[C@@]2(C)[C@H]1CC[C@]2(O)C(=O)CO [prednisolone],wet weight of the spleen,[4]; [9],significant suppression
same,wet weight of the thymus,[4]; [9],significant suppression
same,airway hypersensitivity (PC100ACh),antigen-induced asthma; 22 to 26 hours after antigen challenge,suppressed
same,immediate type asthma response (sRaw immediately after antigen challenge),antigen-induced asthma,suppressed
same,late asthmatic response (sRaw over 4 to 8 hours after antigen challenge),antigen-induced asthma,suppressed
same,spleen wet weight,[8],decrease of spleen weight
C=CC[C@@H]1/C=C(\C)C[C@H](C)C[C@H](OC)[C@H]2O[C@@](O)(C(=O)C(=O)N3CCCC[C@H]3C(=O)O[C@H](/C(C)=C/[C@@H]3CC[C@@H](O)[C@H](OC)C3)[C@H](C)[C@@H](O)CC1=O)[C@H](C)C[C@@H]2OC [tacrolimus hydrate],number of scratching movements,[7],suppressed the number of scratching movements
